Measurements from ChEMBL document CHEMBL4507274 (2021).

What was measured:
[1] = target: Serine/threonine-protein kinase PAK 6 (Homo sapiens) (UniProt Q9NQU5); conditions: Compound concentration 100.0 nM
[2] = target: 5-hydroxytryptamine receptor 5A (Homo sapiens) (UniProt P47898); conditions: Compound concentration 10.0 uM
[3] = target: Macrophage-stimulating protein receptor (Homo sapiens) (UniProt Q04912); conditions: Compound concentration 100.0 nM
[4] = target: Serine/threonine-protein kinase DCLK3 (Homo sapiens) (UniProt Q9C098); conditions: Compound concentration 100.0 nM
[5] = target: SNF-related serine/threonine-protein kinase (Homo sapiens) (UniProt Q9NRH2); conditions: Compound concentration 100.0 nM
[6] = target: Megakaryocyte-associated tyrosine-protein kinase (Homo sapiens) (UniProt P42679); conditions: Compound concentration 100.0 nM
[7] = target: Calcium-dependent protein kinase 1 (Plasmodium falciparum) (UniProt P62344); conditions: Compound concentration 100.0 nM
Sequence of Calcium-dependent protein kinase 1 (Plasmodium falciparum) (P62344 2-524 limits assumed): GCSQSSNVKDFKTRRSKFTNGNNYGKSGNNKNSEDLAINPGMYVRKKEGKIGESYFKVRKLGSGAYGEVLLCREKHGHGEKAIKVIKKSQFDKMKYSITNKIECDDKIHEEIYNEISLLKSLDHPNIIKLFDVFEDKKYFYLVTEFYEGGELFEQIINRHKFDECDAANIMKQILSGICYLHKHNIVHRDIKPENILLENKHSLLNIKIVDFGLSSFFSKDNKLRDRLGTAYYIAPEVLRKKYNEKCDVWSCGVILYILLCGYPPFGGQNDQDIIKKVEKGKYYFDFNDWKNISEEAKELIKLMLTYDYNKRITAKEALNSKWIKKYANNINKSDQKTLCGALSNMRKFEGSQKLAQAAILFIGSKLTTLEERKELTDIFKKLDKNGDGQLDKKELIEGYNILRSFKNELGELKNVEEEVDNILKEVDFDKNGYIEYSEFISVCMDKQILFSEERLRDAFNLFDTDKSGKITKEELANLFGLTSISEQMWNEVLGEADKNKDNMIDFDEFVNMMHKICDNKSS

[8] = target: Tyrosine-protein kinase Yes (Homo sapiens) (UniProt P07947); conditions: Compound concentration 100.0 nM
[9] = target: T1, MAP kinase-activated protein kinase 5 (Homo sapiens) (UniProt Q8IW41); conditions: Compound concentration 100.0 nM
T1 sequence (whole entry): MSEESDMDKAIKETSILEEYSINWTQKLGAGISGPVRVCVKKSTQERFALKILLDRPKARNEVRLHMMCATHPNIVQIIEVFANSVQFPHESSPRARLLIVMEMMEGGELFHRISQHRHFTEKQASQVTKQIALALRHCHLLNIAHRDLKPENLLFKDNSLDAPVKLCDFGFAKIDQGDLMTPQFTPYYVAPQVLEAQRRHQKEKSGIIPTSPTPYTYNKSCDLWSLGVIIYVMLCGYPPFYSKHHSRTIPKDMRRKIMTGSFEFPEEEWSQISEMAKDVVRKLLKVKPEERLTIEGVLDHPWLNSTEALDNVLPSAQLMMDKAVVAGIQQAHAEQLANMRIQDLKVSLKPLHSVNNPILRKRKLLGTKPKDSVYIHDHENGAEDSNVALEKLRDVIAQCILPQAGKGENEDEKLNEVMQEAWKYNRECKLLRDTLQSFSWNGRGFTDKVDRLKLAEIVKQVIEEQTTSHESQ

[10] = target: Mitogen-activated protein kinase kinase kinase kinase 4 (Homo sapiens) (UniProt O95819); conditions: Compound concentration 100.0 nM
[11] = target: Phosphatidylinositol 4-phosphate 5-kinase type-1 alpha (Homo sapiens) (UniProt Q99755); conditions: Compound concentration 100.0 nM
[12] = target: Non-receptor tyrosine-protein kinase TNK1 (Homo sapiens) (UniProt Q13470); conditions: Compound concentration 100.0 nM
[13] = target: MAP/microtubule affinity-regulating kinase 4 (Homo sapiens) (UniProt Q96L34); conditions: Compound concentration 100.0 nM
[14] = target: Phosphatidylinositol 4,5-bisphosphate 3-kinase catalytic subunit gamma isoform (Homo sapiens) (UniProt P48736); conditions: Compound concentration 100.0 nM
[15] = test system: Mast/stem cell growth factor receptor Kit (Homo sapiens), P10721 [V559D]; conditions: Compound concentration 100.0 nM
[16] = target: Receptor tyrosine-protein kinase erbB-4 (Homo sapiens) (UniProt Q15303); conditions: Compound concentration 100.0 nM
[17] = target: Activin receptor type-2B (Homo sapiens) (UniProt Q13705); conditions: Compound concentration 100.0 nM
Sequence of Activin receptor type-2B (Homo sapiens) (Q13705 whole entry): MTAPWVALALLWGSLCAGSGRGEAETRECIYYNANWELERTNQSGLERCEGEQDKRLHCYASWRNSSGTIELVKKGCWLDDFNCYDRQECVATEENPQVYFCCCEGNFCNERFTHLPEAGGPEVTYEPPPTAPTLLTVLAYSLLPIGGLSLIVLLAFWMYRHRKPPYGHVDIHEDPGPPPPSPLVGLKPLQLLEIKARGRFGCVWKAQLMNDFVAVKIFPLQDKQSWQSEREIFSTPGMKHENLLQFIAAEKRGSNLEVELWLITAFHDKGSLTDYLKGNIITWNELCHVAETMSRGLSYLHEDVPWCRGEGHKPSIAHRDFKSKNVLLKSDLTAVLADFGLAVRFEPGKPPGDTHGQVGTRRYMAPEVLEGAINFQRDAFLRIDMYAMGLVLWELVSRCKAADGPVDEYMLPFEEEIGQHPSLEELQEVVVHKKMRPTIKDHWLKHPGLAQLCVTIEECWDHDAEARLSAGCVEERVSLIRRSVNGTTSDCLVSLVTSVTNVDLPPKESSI

[18] = target: Protein kinase C delta type (Homo sapiens) (UniProt Q05655); conditions: Compound concentration 100.0 nM
[19] = target: Mitogen-activated protein kinase 4 (Homo sapiens) (UniProt P31152); conditions: Compound concentration 100.0 nM
[20] = test system: Fibroblast growth factor receptor 3 (Homo sapiens), P22607 [G697C]; conditions: Compound concentration 100.0 nM
[21] = target: Cyclin-dependent kinase 11A (Homo sapiens) (UniProt Q9UQ88); conditions: Compound concentration 100.0 nM
[22] = target: T2, Mitogen-activated protein kinase 13 (Homo sapiens) (UniProt O15264); conditions: Compound concentration 100.0 nM
T2 sequence (whole entry): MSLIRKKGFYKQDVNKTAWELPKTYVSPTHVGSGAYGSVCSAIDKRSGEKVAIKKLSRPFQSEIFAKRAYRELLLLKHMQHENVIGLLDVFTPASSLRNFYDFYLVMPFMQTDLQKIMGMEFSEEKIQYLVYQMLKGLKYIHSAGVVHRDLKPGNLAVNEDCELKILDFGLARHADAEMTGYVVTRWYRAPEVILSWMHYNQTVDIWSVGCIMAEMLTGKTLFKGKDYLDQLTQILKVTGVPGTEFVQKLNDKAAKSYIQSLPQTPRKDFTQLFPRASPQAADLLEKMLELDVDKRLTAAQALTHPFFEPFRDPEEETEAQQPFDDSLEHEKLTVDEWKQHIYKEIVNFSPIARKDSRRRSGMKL

[23] = target: Mitogen-activated protein kinase 7 (Homo sapiens) (UniProt Q13164); conditions: Compound concentration 100.0 nM
[24] = target: Alpha-1A adrenergic receptor (Homo sapiens) (UniProt P35348); conditions: Compound concentration 10.0 uM
[25] = target: Serine/threonine-protein kinase TAO2 (Homo sapiens) (UniProt Q9UL54); conditions: Compound concentration 100.0 nM
[26] = target: Cyclin-dependent kinase 13 (Homo sapiens) (UniProt Q14004); conditions: Compound concentration 100.0 nM
Sequence of Cyclin-dependent kinase 13 (Homo sapiens) (Q14004 whole entry, looked up): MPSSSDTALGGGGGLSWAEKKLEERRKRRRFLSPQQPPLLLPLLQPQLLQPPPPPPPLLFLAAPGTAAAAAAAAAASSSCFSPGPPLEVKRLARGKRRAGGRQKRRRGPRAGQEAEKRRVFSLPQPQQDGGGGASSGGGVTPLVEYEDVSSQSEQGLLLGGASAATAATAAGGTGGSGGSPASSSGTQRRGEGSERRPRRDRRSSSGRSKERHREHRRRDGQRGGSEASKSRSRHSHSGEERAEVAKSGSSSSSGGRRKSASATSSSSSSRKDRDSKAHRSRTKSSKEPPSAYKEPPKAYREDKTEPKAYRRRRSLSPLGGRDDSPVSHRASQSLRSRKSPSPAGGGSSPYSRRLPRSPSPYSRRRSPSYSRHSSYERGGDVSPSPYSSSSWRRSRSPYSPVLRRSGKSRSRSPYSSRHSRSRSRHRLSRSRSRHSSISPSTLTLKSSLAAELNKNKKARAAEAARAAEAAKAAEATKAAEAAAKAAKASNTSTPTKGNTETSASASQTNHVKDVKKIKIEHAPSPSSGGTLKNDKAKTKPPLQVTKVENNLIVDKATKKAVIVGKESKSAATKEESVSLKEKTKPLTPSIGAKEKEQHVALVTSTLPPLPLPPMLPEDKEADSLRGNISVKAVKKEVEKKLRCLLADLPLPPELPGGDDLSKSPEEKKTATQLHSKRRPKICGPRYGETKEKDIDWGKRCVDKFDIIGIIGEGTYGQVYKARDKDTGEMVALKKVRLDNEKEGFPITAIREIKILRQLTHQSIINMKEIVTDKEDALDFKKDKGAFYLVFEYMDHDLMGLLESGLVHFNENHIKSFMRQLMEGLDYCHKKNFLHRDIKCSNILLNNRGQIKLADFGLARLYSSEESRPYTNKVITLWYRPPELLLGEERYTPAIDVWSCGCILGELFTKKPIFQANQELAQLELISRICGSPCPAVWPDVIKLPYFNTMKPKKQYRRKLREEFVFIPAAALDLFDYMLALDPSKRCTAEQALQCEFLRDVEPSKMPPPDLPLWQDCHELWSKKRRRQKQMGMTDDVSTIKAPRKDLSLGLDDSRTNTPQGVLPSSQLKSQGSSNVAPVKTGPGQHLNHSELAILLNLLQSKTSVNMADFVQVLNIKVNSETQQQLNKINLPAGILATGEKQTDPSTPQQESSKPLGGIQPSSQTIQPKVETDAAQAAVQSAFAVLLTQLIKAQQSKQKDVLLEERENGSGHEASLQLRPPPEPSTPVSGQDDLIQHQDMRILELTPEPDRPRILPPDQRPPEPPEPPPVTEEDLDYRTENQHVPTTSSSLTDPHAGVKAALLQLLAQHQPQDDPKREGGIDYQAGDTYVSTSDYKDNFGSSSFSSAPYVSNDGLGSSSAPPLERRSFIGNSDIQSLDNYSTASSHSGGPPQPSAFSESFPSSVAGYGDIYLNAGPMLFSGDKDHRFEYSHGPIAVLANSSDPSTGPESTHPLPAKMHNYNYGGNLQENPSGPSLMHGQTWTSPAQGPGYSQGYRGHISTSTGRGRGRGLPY

[27] = target: Tyrosine-protein kinase CSK (Homo sapiens) (UniProt P41240); conditions: Compound concentration 100.0 nM
[28] = target: Tyrosine-protein kinase receptor UFO (Homo sapiens) (UniProt P30530); conditions: Compound concentration 100.0 nM
Sequence of Tyrosine-protein kinase receptor UFO (Homo sapiens) (P30530 whole entry): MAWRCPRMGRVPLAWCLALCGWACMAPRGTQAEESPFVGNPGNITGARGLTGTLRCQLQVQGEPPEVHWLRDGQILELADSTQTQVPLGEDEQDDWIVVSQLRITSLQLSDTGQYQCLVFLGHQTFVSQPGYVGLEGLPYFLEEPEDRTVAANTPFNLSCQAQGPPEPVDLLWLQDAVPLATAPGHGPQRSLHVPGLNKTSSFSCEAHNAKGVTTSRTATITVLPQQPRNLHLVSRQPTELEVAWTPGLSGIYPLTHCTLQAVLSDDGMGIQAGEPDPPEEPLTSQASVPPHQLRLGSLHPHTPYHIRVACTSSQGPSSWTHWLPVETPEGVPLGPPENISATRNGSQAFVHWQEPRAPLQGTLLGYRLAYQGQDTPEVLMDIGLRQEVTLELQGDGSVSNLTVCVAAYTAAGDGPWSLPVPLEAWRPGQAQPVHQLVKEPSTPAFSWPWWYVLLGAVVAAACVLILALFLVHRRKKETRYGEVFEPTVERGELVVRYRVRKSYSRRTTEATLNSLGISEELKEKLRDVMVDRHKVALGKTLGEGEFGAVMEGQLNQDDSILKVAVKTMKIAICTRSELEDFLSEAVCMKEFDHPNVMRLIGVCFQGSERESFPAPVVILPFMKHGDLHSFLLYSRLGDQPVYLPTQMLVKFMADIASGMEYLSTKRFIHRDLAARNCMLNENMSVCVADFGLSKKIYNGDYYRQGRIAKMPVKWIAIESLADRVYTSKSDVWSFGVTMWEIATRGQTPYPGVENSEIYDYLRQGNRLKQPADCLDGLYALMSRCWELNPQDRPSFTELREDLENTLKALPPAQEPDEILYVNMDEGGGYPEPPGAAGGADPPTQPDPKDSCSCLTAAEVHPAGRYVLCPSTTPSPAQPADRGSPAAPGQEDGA

[29] = target: Cyclin-dependent kinase 16 (Homo sapiens) (UniProt Q00536); conditions: Compound concentration 100.0 nM
[30] = target: Mitogen-activated protein kinase 3 (Homo sapiens) (UniProt P27361); conditions: Compound concentration 100.0 nM
Sequence of Mitogen-activated protein kinase 3 (Homo sapiens) (P27361 whole entry): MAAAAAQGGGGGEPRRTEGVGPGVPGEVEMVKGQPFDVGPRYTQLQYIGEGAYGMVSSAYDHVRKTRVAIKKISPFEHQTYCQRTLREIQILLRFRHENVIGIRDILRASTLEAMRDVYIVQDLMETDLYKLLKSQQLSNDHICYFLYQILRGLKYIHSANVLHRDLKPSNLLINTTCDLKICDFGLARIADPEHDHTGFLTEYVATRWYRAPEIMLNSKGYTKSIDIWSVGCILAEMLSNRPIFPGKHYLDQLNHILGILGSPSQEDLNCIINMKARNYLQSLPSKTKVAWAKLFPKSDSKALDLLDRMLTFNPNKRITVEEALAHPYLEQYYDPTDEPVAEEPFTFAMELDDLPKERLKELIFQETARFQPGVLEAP

[31] = target: Serine/threonine-protein kinase DCLK2 (Homo sapiens) (UniProt Q8N568); conditions: Compound concentration 100.0 nM
[32] = test system: Tyrosine-protein kinase ABL1 (Homo sapiens), P00519 [E255K]; conditions: Compound concentration 100.0 nM
[33] = target: Cyclin-dependent kinase 9 (Homo sapiens) (UniProt P50750); conditions: Compound concentration 100.0 nM
[34] = target: Serine/threonine-protein kinase Chk2 (Homo sapiens) (UniProt O96017); conditions: Compound concentration 100.0 nM
Sequence of Serine/threonine-protein kinase Chk2 (Homo sapiens) (O96017 whole entry): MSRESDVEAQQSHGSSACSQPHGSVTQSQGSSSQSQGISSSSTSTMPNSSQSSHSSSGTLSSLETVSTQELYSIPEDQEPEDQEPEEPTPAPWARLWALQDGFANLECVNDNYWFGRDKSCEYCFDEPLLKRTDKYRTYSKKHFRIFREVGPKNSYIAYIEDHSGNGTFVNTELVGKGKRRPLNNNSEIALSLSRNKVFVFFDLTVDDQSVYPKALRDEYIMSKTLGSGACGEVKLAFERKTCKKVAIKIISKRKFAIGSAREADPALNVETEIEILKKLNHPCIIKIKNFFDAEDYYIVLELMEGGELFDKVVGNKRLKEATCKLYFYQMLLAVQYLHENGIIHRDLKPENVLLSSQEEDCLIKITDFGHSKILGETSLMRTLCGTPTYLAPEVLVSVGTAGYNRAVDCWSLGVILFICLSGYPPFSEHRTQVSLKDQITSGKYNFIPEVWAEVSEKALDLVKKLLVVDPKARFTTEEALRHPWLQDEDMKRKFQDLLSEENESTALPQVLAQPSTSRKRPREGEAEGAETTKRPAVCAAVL

Sequence of Serine/threonine-protein kinase PAK 6 (Homo sapiens) (Q9NQU5 whole entry, looked up): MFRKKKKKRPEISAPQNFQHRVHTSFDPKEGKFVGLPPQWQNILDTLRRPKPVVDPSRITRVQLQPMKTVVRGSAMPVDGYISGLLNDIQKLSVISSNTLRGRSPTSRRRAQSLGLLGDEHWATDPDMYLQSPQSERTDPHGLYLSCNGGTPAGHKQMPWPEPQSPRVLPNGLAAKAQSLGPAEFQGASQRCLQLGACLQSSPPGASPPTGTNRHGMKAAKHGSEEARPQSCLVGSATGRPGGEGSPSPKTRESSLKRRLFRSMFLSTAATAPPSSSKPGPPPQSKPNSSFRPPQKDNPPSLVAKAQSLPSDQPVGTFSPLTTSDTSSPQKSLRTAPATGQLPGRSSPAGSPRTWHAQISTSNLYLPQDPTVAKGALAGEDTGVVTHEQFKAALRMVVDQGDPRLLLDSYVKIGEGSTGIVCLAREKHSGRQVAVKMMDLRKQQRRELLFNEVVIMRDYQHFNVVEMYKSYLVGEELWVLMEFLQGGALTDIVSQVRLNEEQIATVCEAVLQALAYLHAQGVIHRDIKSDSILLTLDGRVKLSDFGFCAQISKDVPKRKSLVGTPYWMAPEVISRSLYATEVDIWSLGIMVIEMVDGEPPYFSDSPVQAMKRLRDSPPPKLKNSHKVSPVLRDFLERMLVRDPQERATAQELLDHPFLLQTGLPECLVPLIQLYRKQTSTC

Cn1cc(Cl)c2c(Oc3c(F)cc(Nc4cc(Cl)nc(N)n4)cc3F)ccnc21 [BAY-4900]
inactive: residual activity [1] 100% | inhibition [2] 0.35% | residual activity [3] 87% | residual activity [4] 89% | residual activity [5] 86% | residual activity [6] 97% | residual activity [7] 88% | residual activity [8] 93% | residual activity [9] 100% | residual activity [10] 86% | residual activity [11] 70% | residual activity [12] 100% | residual activity [13] 100% | residual activity [14] 82% | residual activity [15] 96% | residual activity [16] 97% | residual activity [17] 79% | residual activity [18] 100% | residual activity [19] 100% | residual activity [20] 100% | residual activity [21] 100% | residual activity [22] 95% | residual activity [23] 100% | inhibition [24] -5.31% | residual activity [25] 100% | residual activity [26] 77% | residual activity [27] 100% | residual activity [28] 100% | residual activity [29] 100% | residual activity [30] 98% | residual activity [31] 100% | residual activity [32] 100% | residual activity [33] 100% | residual activity [34] 94%

Cc1c[nH]c2nccc(Oc3c(F)cc(Nc4cc(Cl)nc(N)n4)cc3F)c12 [BAY-549]
inactive: residual activity [1] 82% | inhibition [2] -9.86% | residual activity [3] 74% | residual activity [4] 97% | residual activity [5] 77% | residual activity [6] 88% | residual activity [7] 91% | residual activity [8] 96% | residual activity [9] 81% | residual activity [10] 94% | residual activity [11] 68% | residual activity [12] 100% | residual activity [13] 100% | residual activity [14] 88% | residual activity [15] 90% | residual activity [16] 100% | residual activity [17] 100% | residual activity [18] 100% | residual activity [19] 81% | residual activity [20] 100% | residual activity [21] 100% | residual activity [22] 89% | residual activity [23] 82% | inhibition [24] -7.18% | residual activity [25] 100% | residual activity [26] 73% | residual activity [27] 87% | residual activity [28] 93% | residual activity [29] 99% | residual activity [30] 90% | residual activity [31] 100% | residual activity [32] 100% | residual activity [33] 78% | residual activity [34] 89%
